# Measured values taken from ChEMBL document CHEMBL5518182, “Discovery and development of BI 1265162, an ENaC inhibitor for the treatment of cystic fibrosis” (Eur J Med Chem, 2024).
# pIC50: −log10 of the molar value. Active and inactive are the calls of the source. No cut-off for these calls is given here.
# How the values were obtained:
# [1] = tested on: M1 cell; test: Inhibition of ENaC-mediated water resorption in mouse M1 cells at 3 uM by radiometric dilution assay relative to control; assay type: cell-based
# [2] = tested on: Lung; test: Inhibition of lung water resorption in Wistar rat at 3 ug/kg, IT(Intratracheal) incubated for 3 hrs relative to control; assay type: functional
# [3] = tested on: Lung; test: Inhibition of lung water resorption in Wistar rat at 30 ug/kg, IT(Intratracheal) incubated for 3 hrs relative to control; assay type: functional
# [4] = Inhibition of ENaC in mouse M1 cells upto 10 uM by chamber assay; assay type: cell-based; conditions: m1 cell
# [5] = Solubility of compound at pH 5; assay type: physicochemical; conditions: buffer
# [6] = Permeability across basal to apical side in human Calu-3 cells at 0.1 to 300 uM measured upto 2 hrs by HPLC-MS/MS analysis; assay type: ADME, cell-based; conditions: dose 0.1-300 µM, read-out: permeability
# [7] = tested on: Lung; test: Inhibition of lung water resorption in Wistar rat at 0.3 ug/kg, IT(Intratracheal) incubated for 3 hrs relative to control; assay type: functional
# [8] = molecular target: Acetylcholinesterase (Homo sapiens) (UniProt P22303); test: Inhibition of AChE (unknown origin) at 10 uM relative to control
# [9] = tested on: Rattus norvegicus; test: Effect on Han Wistar rat model of lung fluid absorption at ED70 administered intratracheally measured after 20 hrs; assay type: functional; conditions: route it(Intratracheal)
# [10] = tested on: Rattus norvegicus; test: Upregulation of serum aldosterone level in Han Wistar rat model of lung fluid absorption at 3 ug/kg, IT(Intratracheal) measured after 3 hrs relative to control; assay type: functional; conditions: dose 3 µg/kg
# [11] = tested on: Rattus norvegicus; test: Acute effect on Han Wistar rat model of lung fluid absorption administered intratracheally measured after 3 hrs; assay type: functional; conditions: route it(Intratracheal)
# [12] = organism: Rattus norvegicus; test: Upregulation of serum potassium level in Han Wistar rat; assay type: functional, organism-based
# Chain of Acetylcholinesterase (Homo sapiens) (P22303 whole entry): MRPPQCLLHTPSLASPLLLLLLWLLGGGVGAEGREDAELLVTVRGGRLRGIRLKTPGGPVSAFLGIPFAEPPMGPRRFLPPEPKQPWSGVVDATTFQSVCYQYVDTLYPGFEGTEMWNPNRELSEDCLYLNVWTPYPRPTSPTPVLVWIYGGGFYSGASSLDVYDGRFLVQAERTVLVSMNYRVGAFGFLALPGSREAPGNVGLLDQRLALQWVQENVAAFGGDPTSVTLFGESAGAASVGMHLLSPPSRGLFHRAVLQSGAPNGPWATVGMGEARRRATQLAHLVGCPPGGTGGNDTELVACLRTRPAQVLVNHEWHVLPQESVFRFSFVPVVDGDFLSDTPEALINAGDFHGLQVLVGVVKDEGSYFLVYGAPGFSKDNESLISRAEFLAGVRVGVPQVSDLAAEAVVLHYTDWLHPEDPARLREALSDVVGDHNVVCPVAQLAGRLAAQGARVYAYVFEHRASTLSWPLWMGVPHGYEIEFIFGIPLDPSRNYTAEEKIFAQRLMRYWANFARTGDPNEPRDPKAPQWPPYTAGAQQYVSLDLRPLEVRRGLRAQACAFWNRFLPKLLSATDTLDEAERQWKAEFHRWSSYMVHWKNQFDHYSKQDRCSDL
Compound,inhibition [1],pIC50 [4],solubility [5],"Papp B→A at 2 h, up to 300 µM [6]",also measured
CCn1c(CNC(=O)c2nc(Cl)cnc2N)[n+](CC)c2cc(C(=O)NCCCN)ccc21,83%,8.44,,,inhibition in vivo at 0.003 mg/kg [2]: 25%; inhibition in vivo at 0.03 mg/kg [3]: 24%
CCn1c(CNC(=O)c2nc(Cl)c(N)nc2N)[n+](CCO)c2cc(OCC(=O)N3CCN(C(C)=O)CC3)ccc21,92%,8.51,< 2%,0.31 ×10⁻⁶ cm/s,
CCn1c(CNC(=O)c2nc(Cl)cnc2N)[n+](CC)c2cc(C(=O)N3CCC(N)CC3)ccc21,84%,8.30,> 2%,0.18 ×10⁻⁶ cm/s,inhibition in vivo at 0.003 mg/kg [2]: 13%; inhibition in vivo at 0.03 mg/kg [3]: 26%
CC[n+]1c(CNC(=O)c2nc(Cl)cnc2N)n(CCOCCOCCO)c2ccc(OC)cc21,,8.52,,,
CCn1c(CNC(=O)c2nc(Cl)c(N)nc2N)[n+](CC)c2cc(OCCCP(=O)([O-])OC[C@H]3CCCO3)ccc21,89%,8.00,> 5%,0.06 ×10⁻⁶ cm/s,inhibition in vivo at 0.003 mg/kg [2]: 14%; inhibition in vivo at 0.03 mg/kg [3]: 16%
CCn1c(CNC(=O)c2nc(Cl)cnc2N)[n+](CC)c2cc(OCC(=O)OC)ccc21,65%,9.15,,0.25 ×10⁻⁶ cm/s,
CC[n+]1c(CNC(=O)c2nc(Cl)c(N)nc2N)[nH]c2ccc(OC)cc21,,7.59,,,
CCn1c(CNC(=O)c2nc(Cl)c(N)nc2N)nc2cc(OC)ccc21,,6.77,,,
CCn1c(CNC(=O)c2nc(Cl)cnc2N)[n+](CC)c2ccccc21,,9.15,,,
CCn1c(CNC(=O)c2nc(Cl)cnc2N)[n+](CC)c2cc(C(=O)N3CCC(N(C)C)CC3)ccc21,79%,8.38,> 2%,< 0.13 ×10⁻⁶ cm/s,inhibition in vivo at 0.0003 mg/kg [7]: 19%; inhibition in vivo at 0.003 mg/kg [2]: 25%; inhibition [8]: 11%; inhibition in vivo at 0.03 mg/kg [3]: 26%
CCn1c(CNC(=O)c2nc(Cl)c(N)nc2N)[n+](CC)c2cc(OC)ccc21,,9.52,,,
CCn1c(CNC(=O)c2nc(Cl)cnc2N)[n+](CC)c2cc(C(=O)O)ccc21,,7.54,,0.17 ×10⁻⁶ cm/s,
CCn1c(CNC(=O)c2nc(Cl)cnc2N)[n+](CCO)c2cc(OCC(=O)N3CCN(C(C)=O)CC3)ccc21,76%,7.74,> 5%,0.7 ×10⁻⁶ cm/s,inhibition in vivo at 0.003 mg/kg [2]: 75%; inhibition [8]: 75%
CCn1c(CNC(=O)c2nc(Cl)c(N)nc2N)[n+](CC)c2ccccc21,,9.70,,,
CC[n+]1c(CNC(=O)c2nc(Cl)c(N)nc2N)n(CC(=O)O)c2ccc(OC)cc21,,8.19,,,
CC[n+]1c(CNC(=O)c2nc(Cl)c(N)nc2N)n(CCOCCOCCO)c2ccc(OC)cc21,,9.30,,,
CCn1c(CNC(=O)c2nccnc2N)[n+](CC)c2ccccc21,,6.77,,,
CCn1c(CNC(=O)c2nc(Cl)cnc2N)[n+](CC)c2cc(OCC(=O)NCCOCP(C)(C)=O)ccc21,72%,8.47,,,inhibition in vivo at 0.0003 mg/kg [7]: 30%; inhibition in vivo at 0.003 mg/kg [2]: 31%; inhibition [8]: 29%; inhibition in vivo at 0.03 mg/kg [3]: 30%; Efficacy [9]: 31%; Activity [10]: <25%; ED50 [11]: 0.09 µg/kg; ED70 [11]: 0.18 µg/kg; Activity [12]: inactive

Compound,inhibition [1],pIC50 [4],solubility [5],"Papp B→A at 2 h, up to 300 µM [6]",also measured
CCn1c(CNC(=O)c2nc(Cl)c(N)nc2N)[n+](CCO)c2cc(OC)ccc21,,9.30,,,
CCn1c(CNC(=O)c2nc(Br)cnc2N)[n+](CC)c2ccccc21,,9.15,,,
CCn1c(CNC(=O)c2cc(Cl)ccc2N)[n+](CC)c2ccccc21,,7.72,,,
CCn1c(CNC(=O)c2nc(Cl)cnc2N)[n+](CC)c2ccc(C(=O)NCCCN)cc21,,,> 2%,0.22 ×10⁻⁶ cm/s,
CCn1c(CNC(=O)c2nc(Cl)c(NC)nc2N)[n+](CC)c2ccccc21,,6.52,,,
CCn1c(CNC(=O)c2ncc(C)nc2N)[n+](CC)c2ccccc21,,5.78,,,
CCn1c(CNC(=O)c2cc(Cl)cnc2N)[n+](CC)c2ccccc21,,7.30,,,
CCOP(=O)([O-])CCCOc1ccc2c(c1)[n+](CC)c(CNC(=O)c1nc(Cl)c(N)nc1N)n2CC1CCOCC1,81%,8.08,< 5%,0.17 ×10⁻⁶ cm/s,
CCn1c(CNC(=O)c2nc(Cl)cnc2N)[n+](CC)c2cc(OCC(=O)O)ccc21,70%,7.80,,0.22 ×10⁻⁶ cm/s,
Cn1c(CNC(=O)c2nc(Cl)c(N)nc2N)[n+](C)c2ccccc21,,7.72,,,
CCn1c(CNC(=O)c2nc(Cl)c(N)nc2N)[n+](CC)c2cc(OCCCP(=O)([O-])OCCOC)ccc21,98%,8.38,> 5%,0.03 ×10⁻⁶ cm/s,inhibition in vivo at 0.003 mg/kg [2]: 12%; inhibition in vivo at 0.03 mg/kg [3]: 22%
CC[n+]1c(CNC(=O)c2nc(Cl)c(N)nc2N)n(CC(=O)OC)c2ccc(OC)cc21,,9.30,,,
CCn1c(CNC(=O)c2nc(Cl)c(N)nc2N)[n+](CCCO)c2cc(OC)ccc21,,9.52,,,
Cn1c(CNC(=O)c2nc(Cl)cnc2N)[n+](C)c2ccccc21,,7.09,,,
CCOP(=O)([O-])CCCOc1ccc2c(c1)[n+](CC)c(CNC(=O)c1nc(Cl)c(N)nc1N)n2CCCC#N,83%,7.72,> 5%,0.22 ×10⁻⁶ cm/s,inhibition in vivo at 0.003 mg/kg [2]: 6%; inhibition in vivo at 0.03 mg/kg [3]: 16%
CCn1c(CNC(=O)c2nc(Cl)cnc2N)[n+](CC)c2cc(C(=O)OC)ccc21,,8.52,,,
CC[n+]1c(CNC(=O)c2nc(Cl)cnc2N)n(CC2CCOCC2)c2ccc(OCC(=O)N(Cc3nc(C)ccc3O)C[C@H](C)O)cc21,72%,8.07,> 5%,0.12 ×10⁻⁶ cm/s,inhibition in vivo at 0.0003 mg/kg [7]: 8%; inhibition in vivo at 0.003 mg/kg [2]: 17%; inhibition [8]: 18%; inhibition in vivo at 0.03 mg/kg [3]: 33%
CC[n+]1c(CNC(=O)c2nc(Cl)c(N)nc2N)n(CC2CCOCC2)c2ccc(OCC(=O)N(Cc3nc(C)ccc3O)C[C@H](C)O)cc21,63%,8.60,< 2%,0.2 ×10⁻⁶ cm/s,
